Laboratory results from patent publication US11866405B2, “Substituted indazoles as IRAK4 inhibitors” (AstraZeneca AB, priority 2020, dated 2024).

Experiments:
[1] = molecular target: human recombinant IRAK4 protein (Homo sapiens (Human), UniProt Q9NWZ3); experiment: IRAK4 enzyme assay (mass spectrometry readout); type: biochemical; conditions: 3 mM ATP, 0.2 nM enzyme; geometric mean of at least n=2, * single experiment
Procedure, shortened: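 0.2 nM IRAK4 preincubated 15 min at room temperature with compound (10-point half-log series, top 1 μM or 10 μM) in pH 7.4 Tris buffer with 3 mM ATP; 10 μM peptide substrate added, 2 h at room temperature, formic acid stop. Phospho/unphospho peptide ratio by LC-MS/MS; potency from curve fit, geometric mean of n≥2 or single run.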

[2] = tested on: IL-1β stimulated IL-8 release in hTHP1 cells; experiment: IL-1β-induced IL-8 release in human THP-1 monocyte cell line; type: cell-based; conditions: Homo sapiens, THP-1, 18 h, THP-1 cells, IL-1β 1.8 ng/mL, geometric mean of at least n=2, * n = 1, read-out: hTHP1, IL1β stim, IL8 release red. IC50
Method: Effect of IRAK4 Inhibitors on IL-1β-Induced Cytokine Release in Human THP-1 Monocyte Cell Line
THP-1 cells were cultured in RPMI 1640 (Gibco 72400-021) containing 10% FBS (Gibco 10270-106), 1 mM Na-pyruvate (Gibco 11360-070) and 100 U/mL Penicillin-Streptomycin (Gibco 15140-122). Cells were plated at 5×10^4 cells per well in 384 well Echo certified plates (Labcyte PPT-0200) to which compounds had been added at various concentrations (10 point half log dose response with a final top concentration of 10 μM) using an Echo 655 (Labcyte Inc). The plate was incubated for 1 h at 37° C., then recombinant […] (R&D Systems 201-LB-025/CF) was added to a final concentration of 1.8 ng/mL. The plates were incubated at 37° C. for 18h. The plates were centrifuged at 250×g for four minutes, then 1.6 μL of the cell supernatant was transferred to a white low volume 384 well plate (Greiner #784075) using acoustic dispensing on an Echo 655. Next, 200 nL of acceptor bead (5 mg/mL) and biotinylated anti-IL-8 antibody (500 nM) was added using acoustic dispensing (beads and antibody were from a PerkinElmer 18 Alpha LISA detection kit, AL224C). The plate was sealed, briefly centrifuged, then incubated at room temperature for 1 h. Afterwards, 200 nL of donor bead solution (5 mg/mL) was added, the plate sealed and briefly centrifuged, then incubated for 1 h before being read on an Envision plate reader to allow determination the concentration of IRAK4 inhibitor required to effect a 50% reduction in the amount of IL-8 released following IL-1β stimulation in THP1 cells (Table 2). The quantified data were analysed in Genedata Screener 15 (Genedata AG). Data presented are the geometric mean of at least n=2, or as denoted by an * are obtained from a single experiment.

[3] = tested on: LPS-induced lung inflammation; experiment: Mouse model of LPS-induced airway inflammation; type: in vivo; conditions: mice, 5, 15 and 50 mg/kg oral, inhaled LPS 1 mg/mL, 4 h after challenge
Method: FIG. 1. In vivo dose response of Example 89 in an acute mouse model of LPS-induced lung inflammation. Example 89 compound was dosed orally to mice 1 h prior to inhaled LPS challenge (1 mg/mL). 4 h after the challenge, the animals were terminated and the levels of IL-6 and TNF-α released in the bronchoalveolar lavage fluid were measured. […] Individual data points represent individual animals, and bars represent the mean value of each group. Statistical differences between groups were calculated with a one-way ANOVA test comparing treatment groups to the vehicle group. **p<0.01, ***p<0.001. The ability of IRAK4 inhibitors according to the specification to reduce inflammatory cytokines and TNF-α in vivo is thus established.
In Vivo Effect of IRAK4 Inhibition in a Mouse Model of LPS-Induced Airway Inflammation
TLRs act as a first sensor of microbes and allergens in the airways and can mediate a rapid inflammatory response. A mouse model of inhaled LPS challenge was used to study the effect of IRAK4 inhibition on the processes of an acute TLR4-driven airway inflammation. […] The levels of proinflammatory cytokines were measured in the BALF supernatant using MSD multiplex assay 8 mice per treatment group were used, except for the LPS/vehicle group where 20 mice were used. […]

Sequence of human recombinant IRAK4 protein (Q9NWZ3 whole entry): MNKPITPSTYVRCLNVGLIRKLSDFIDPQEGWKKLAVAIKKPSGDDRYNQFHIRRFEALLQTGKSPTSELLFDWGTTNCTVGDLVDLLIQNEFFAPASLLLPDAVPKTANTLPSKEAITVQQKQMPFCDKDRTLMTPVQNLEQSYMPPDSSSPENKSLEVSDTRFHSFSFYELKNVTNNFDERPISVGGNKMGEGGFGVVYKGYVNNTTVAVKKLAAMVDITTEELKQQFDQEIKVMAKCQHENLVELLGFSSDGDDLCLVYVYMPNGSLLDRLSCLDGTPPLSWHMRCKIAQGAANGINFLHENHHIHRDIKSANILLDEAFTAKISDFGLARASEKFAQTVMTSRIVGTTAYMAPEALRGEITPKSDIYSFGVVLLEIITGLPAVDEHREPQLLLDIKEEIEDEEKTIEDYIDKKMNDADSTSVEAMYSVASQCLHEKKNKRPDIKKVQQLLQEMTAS

IC50 [1]: 1.1 nM
IC50 [2]: 31 nM
Compound: COc1cc2nn([C@@H]3CC[C@@H](O)C[C@H]3C)cc2cc1C(=O)Nc1cnc2cccnn12 [Example 89, 2-((1R,2R,4R)-4-hydroxy-2-methylcyclohexyl)-N-(imidazo[1,2-b]pyridazin-3-yl)-6-methoxy-2H-indazole-5-carboxamide]
levels of IL-6 in bronchoalveolar lavage fluid [3]: reduced the levels of IL-6 and TNF-α upon inhaled LPS challenge, in a dose-dependent manner
levels of TNF-α in bronchoalveolar lavage fluid [3]: reduced the levels of IL-6 and TNF-α upon inhaled LPS challenge, in a dose-dependent manner
